Marks after values point to notes of the source that are not given here.

What all share (assay type): physicochemical
Data set [1] is described as follows: Viscosity by rheology (temperature ramp, cone-plate rheometer). The note with it: shear rate 60 s^-1. As to the method: Viscosity is another crucial parameter on the development of a reactive diluent. To obtain an effective reactive diluent, monomers providing a low viscosity need to be obtained. The referred viscosity is preferably between 5 and 100 mPa.s, more preferably between 5 and 50 mPa.s, and even more preferably 5 and 20 mPa.s. The presented viscosities refer to the process temperature which can be between 30-150°C. The viscosity was determined via rheology. Rheology measurements were performed using an Anton Paar MCR 102 rheometer, equipped with a P-PTD 200/GL Peltier glass plate and an H-PTD200 heating hood. For measuring the rheological properties, a temperature ramp experiment was performed from 25-100°C with a heating rate of 0.5°C min^-1, using a CP25 measurement system (cone plate with a 2° angle and 25 mm diameter) at a gap distance of 0.1 mm and with a shear rate of 60 s^-1.

The nature of data set [2]: Volatility: weight loss after 24 hours in oven. The note with it: for weight loss relative to example 1: ratio to weight loss of example 1. As for the experimental part: Volatility can be assessed from the weight lost after 24 hours, and is preferably below 10%, more preferably below 5% and even more preferable below 1% at the process temperature (between 30 and 150°C). For the determination of the volatility of the compounds 25 mL flasks (Ø 30 mm) with approximately 2 grams of the test compound were placed in a Memmert oven at 50 °C and 80°C for 24 hours and the volatility was determined as the weight loss in percent (w/w).

A short description of data set [3]: Photo-DSC photo-reactivity study. Particulars: 50°C, 365 nm, 1% w/w TPO-L; for t95%: time when 95% of the total heat of polymerization has evolved; for tmax: time when maximum heat evolution was reached. As to the method: Photo-DSC (differential scanning calorimetry) studies were performed using a Netzsch DSC 204 F1 containing an autosampler and coupled to an intracooler IC85 cooling device. The system was connected to an Omnicure LX500 controller with a 365 nm LED and the power intensity was set on the sample at 17 mW cm^-2 (measured using a Thorlabs SMC100 powermeter and the corresponding S310C thermal power head). The test samples were mixed in a vortex mixer for 3 minutes with 1% w/w of TPO-L (a commercially available photoinitiator) and then […] were transferred to an aluminum crucible without lid. All experiments were conducted under Nitrogen atmosphere (flow = 20 mL/min) at 50°C and the samples were irradiated for 5 minutes. Triplicate DSC measurements were performed for each example. The measured heat of polymerization (ΔH) was calculated by integrating the area under the curve from 0 to 200 s.
Here, tmax is the time when maximum heat evolution was reached and t95% corresponds to the point when 95% of the total heat of polymerization has evolved (0 s corresponds to the moment when light is triggered). The double bound conversion (DBC) was calculated from the experimentally obtained heat of polymerization and the theoretical polymerization enthalpy indicated in the literature (56 kJ mol^-1 for methacrylates).

Data set [4] is described as follows: Dynamic Mechanical Analysis (DMA) of printed specimens. Particulars: increasing the percentage of reactive diluent from 10 to 30% in X-851-1066. As for the experimental part:
For the (thermo)mechanical tests and water uptake tests, Example 1 or Reference 2 were mixed with two commercially available oligomers, namely Ebecryl 8811 (Allnex) a difunctional aliphatic urethane acrylate and BR-952 (Bomar) a difunctional aliphatic urethane methacrylate in different ratios.
For the sample preparation a speedmixer (DAC 150.1 FVZ-K, Hauschild) was used. 70 g of the total formulation was mixed at 3000 rpm for 10 minutes. After that the resin composition was degassed until no air bubbles were released.
Test specimens were printed on a Cubicure Caligma 200 DLP 405 nm. Light Pulse Duration was set to 6000, corresponding to 1.5 s total exposure time, and print speed to 20 mm/s. Processing temperature was 35°C, due to the high volatility of Reference 2.
Dynamic Mechanical Analysis (DMA) of the printed specimens measuring 50x5x1 mm^3 was performed using a DMA8000 Dynamic Mechanical Analyzer from PerkinElmer. The measurements were performed using the tension mode, from 30-160 °C with a heating rate of 2°C min^-1 and frequency of 1 Hz. In these experiments the evolution of the storage modulus G' with increasing temperature was observed and the Tg was determined (maximum value for tan δ).

`C=C(C)C(=O)OC1CCCCC1OC(=O)C(CC)CCCC` (stereo not drawn) [Ex5, 2-(isopropenylcarbonyloxy)cyclohexyl 2-ethylhexanoate]: the Viscosity in data set [1] (25°C (room temperature)) is 174 mPa.s; in data set [1] (25°C (room temperature), listed as Example 5) it was 110 mPa.s; in data set [1] (40°C), 101 mPa.s; in data set [1] (40°C, listed as example 5) it was 53 mPa.s; in data set [1] (50°C), 65 mPa.s; in data set [1] (70°C) it was 34 mPa.s. Moreover, the values for the Viscosity in data set [1] (90°C) and in data set [1] (100°C) were 20 mPa.s and 19 mPa.s, respectively. The “Volatility [weight loss %]” value in data set [2] (50°C) was 0.6%; in data set [2] (80°C), 1.9** %.

With `C=C(C)C(=O)OC1CCCCC1OC(=O)C1CCCCC1` (stereo not drawn) [Ex2, 2-(cyclohexylcarbonyloxy)cyclohexyl methacrylate], the Viscosity in data set [1] (25°C (room temperature)) was found to be 27 mPa.s; in data set [1] (40°C), 17 mPa.s; in data set [1] (50°C) it was 12 mPa.s; in data set [1] (70°C) it was 7 mPa.s; in data set [1] (90°C), 4 mPa.s; in data set [1] (100°C) it was 4 mPa.s. The “Volatility [weight loss %]” value in data set [2] (50°C) is recorded as 1%; in data set [2] (80°C), 14%. In data set [3], the t95% is given as 66 s. Besides, in data set [3], the tmax came to 17 s.

For `C=C(C)C(=O)OC1CCCCC1OC(=O)C(C)(C)C` (stereo not drawn) [Ex3, 2-(isopropenylcarbonyloxy)cyclohexyl 2,2-dimethylpropionate], the Viscosity was determined as 13 mPa.s in data set [1] (25°C (room temperature)); 9 mPa.s in data set [1] (40°C); 6 mPa.s in data set [1] (50°C); 4 mPa.s in data set [1] (70°C); 2 mPa.s in data set [1] (90°C); 2 mPa.s in data set [1] (100°C). The “Volatility [weight loss %]” value in data set [2] (50°C) is reported as 2.7%; in data set [2] (80°C), 21%. This molecule also displayed a t95% in data set [3] of 87 s. Further, in data set [3], the tmax turned out to be 51 s.

Turning to `C=C(C)C(=O)OCCO` [Ref2, 2-hydroxyethylmethacrylate, reference compound], the Viscosity in data set [1] (25°C (room temperature)) is recorded as 6 mPa.s; in data set [1] (40°C), 4 mPa.s; in data set [1] (50°C) it was 3 mPa.s; in data set [1] (70°C), 2 mPa.s; in data set [1] (90°C) it was 1 mPa.s; in data set [1] (100°C), 1 mPa.s. Moreover, the “Volatility [weight loss %]” value in data set [2] (50°C) amounted to 34%; in data set [2] (80°C) it was 89%. The “weight loss relative to example 1” value in data set [2] (80°C) is “more than 4 times”. In addition, the t95% in data set [3] was 65 s. In data set [3], this molecule gave a tmax of 43 s. Besides, the “decrease of Tg of the photopolymer” value in data set [4] came out at 13%.

Regarding `C=C(C)C(=O)OC1CCCCC1OC(=O)Cc1ccccc1` (stereo not drawn) [Ex4, 2-(benzylcarbonyloxy)cyclohexyl methacrylate], the Viscosity in data set [1] (25°C (room temperature)) came to 110 mPa.s; in data set [1] (25°C (room temperature), listed as Example 4) it was 174 mPa.s; in data set [1] (40°C) it was 53 mPa.s; in data set [1] (50°C), 31 mPa.s; in data set [1] (70°C), 13 mPa.s; in data set [1] (90°C), 8 mPa.s. In data set [1] (100°C), this molecule registered a Viscosity of 7 mPa.s. Besides, the results for the “Volatility [weight loss %]” value in data set [2] (50°C) and in data set [2] (80°C) were 0.09% and 17%, respectively. In data set [3], this molecule returned a t95% of 174 s. This molecule had a tmax in data set [3] of 26 s.

In the case of `C=C(C)C(=O)OC1CCCCC1O` (stereo not drawn) [Ex1, 2-hydroxycyclohexyl methacrylate], the Viscosity in data set [1] (25°C (room temperature)) is reported as 53 mPa.s; in data set [1] (40°C) it was 26 mPa.s; in data set [1] (50°C), 16 mPa.s; in data set [1] (70°C) it was 7 mPa.s; in data set [1] (90°C) it was 4 mPa.s; in data set [1] (100°C), 3 mPa.s. The “Volatility [weight loss %]” value in data set [2] (50°C) turned out to be 5%; in data set [2] (80°C), 20%. In data set [3], this molecule showed a t95% of 43 s. In data set [3], this molecule registered a tmax of 14 s. Moreover, in data set [4], the “decrease of Tg of the photopolymer” value worked out at 4%.

Regarding “Isobornyl methacrylate [Ref1, reference compound]”, the Viscosity in data set [1] (25°C (room temperature)) amounted to 8 mPa.s; in data set [1] (40°C), 6 mPa.s; in data set [1] (50°C), 4 mPa.s; in data set [1] (70°C) it was 3 mPa.s; in data set [1] (90°C), 2 mPa.s; in data set [1] (100°C), 2 mPa.s. Besides, the entries for the “Volatility [weight loss %]” value in data set [2] (50°C) and in data set [2] (80°C) were 12% and 65%, respectively. In data set [2] (80°C), the “weight loss relative to example 1” value was determined as 3 times. In data set [3], the t95% turned out to be 67 s. Besides, the tmax in data set [3] is reported as 36 s.

The values above are taken from patent publication EP4549150A1, “RESIN COMPOSITION FOR THREE-DIMENSIONAL PRINTING” (Cubicure GmbH, priority 2023, dated 2025).
